This series is described as follows: Human HepG2 cell viability assay in 384 well format. Type of series: toxicity, cell-based. Also noted: dose 125 nL, time 70.5 hour; concentration not given beside the values. Particulars: HepG2 cells, read-out: Inhibition.
On to `N#CC1(C(=O)N2CCN(c3nccs3)CC2)CCCCC1`, for which the cytotoxicity at 70.5 h was -10.1%. For `O=C(CCCn1cncn1)N1CCC2(CCCN(C3CCCC3)C2=O)C1` (centres undefined), the cytotoxicity at 70.5 h was -4.98%. As to `CC(C)c1cc(CNC(=O)Nc2cc(F)cc(N3CCCC3)c2)on1`, the cytotoxicity at 70.5 h was found to be 17.1%. As for `CS(=O)(=O)N[C@@H]1CN(Cc2ccncc2)C[C@@H]2CCCO[C@@H]21`, the figure is -9.37%; as for `O=C1CC(c2ccsc2)c2sc(C(=O)O)c(-c3ccc(F)cc3)c2N1` (centres undefined), -4.46%; as for `Cn1cc(CNCCn2cccn2)c(-c2cccnc2)n1`, -4.81%.

`CN1CCN([C@@H]2CCN(CC3=Cc4cc(Cl)ccc4OC3)C[C@H]2O)CC1`: the cytotoxicity at 70.5 h is -0.445%.

In the case of `Cc1cc(C(=O)NC2CCCc3c2cnn3-c2cccc(C)c2C)[nH]n1` (centres undefined), the cytotoxicity at 70.5 h was -3.11%. As for `O=C(c1ccnc(CC2COc3ccccc3C2)c1)N1CCCC1` (centres undefined), the figure is -23.5%; as for `O=C(CCC1CCN(Cc2ccncc2)CC1)Nc1ccccc1Cl`, 0.0549%; as for `c1cnc(-c2nc(CN3CCCC(N4CCCC4)C3)cs2)nc1` (centres undefined), -3.36%. As for `CC(CNC(=O)Nc1ccc(N(C)C)nc1)Cn1cccn1` (centres undefined), the figure is -7.16%; as for `O=C(NCCC(O)c1cccs1)c1ccc(Br)o1` (centres undefined), -10.7%; as for `CC(C)C1CN(C(=O)c2cn3ccccc3n2)CCCN1CC1CC1` (centres undefined), -10.1%. As for `O=C(CCN1CCCCC1)N1CCC(Cc2ccc(CO)cc2)C1` (centres undefined), the figure is -6.38%; as for `O=C(O)c1cc(NS(=O)(=O)c2ccc(Br)s2)c(F)cc1F`, 1.5%. For the compound `Cc1ccc(C)c(Oc2ccc(CNC(=O)C3CNC(=O)N3)cn2)c1` (centres undefined), the cytotoxicity at 70.5 h was -1.21%.

For the compound `N#Cc1ccc(F)c(CN2CCNC(=O)C2c2cccs2)c1` (centres undefined), the cytotoxicity at 70.5 h worked out at 18%. Turning to `O=C(Cc1ccc(Cl)s1)Nc1ccc2c(c1)C(=O)NC2=O`, the cytotoxicity at 70.5 h is -1.77%.

In the case of `CNS(=O)(=O)c1ccc(CNC(=O)c2c(C)oc(C)c2C)cc1`, the cytotoxicity at 70.5 h was -12.9%. As for `CN(Cc1cnn(C)c1)CC(O)c1ccc2c(c1)OCO2` (centres undefined), the cytotoxicity at 70.5 h is -2.83%. As for `N#Cc1c(F)cccc1N1CCC(NS(=O)(=O)c2cccs2)CC1`, the figure is 13.5%; as for `Clc1cc(CN2CCCN3CCCC3C2)c2ncccc2c1` (centres undefined), -2.91%; as for `NC(=O)CN1CCCC(Cc2ccc(N3CCOCC3)nn2)C1` (centres undefined), -0.993%. As for `NC(=O)CCC1CCCN(Cc2cnc(N3CCCCC3)nc2)C1` (centres undefined), the figure is -3.37%; as for `CN1CCN2CCN(Cc3cnc(NCc4ccccc4)nc3)CC2C1` (centres undefined), 24%; as for `CCOCC(=O)NC(C#N)c1cnn(-c2ccccc2)c1` (centres undefined), -9.95%. As for `Cc1cnc(C(=O)N2CCc3ncnc(C)c3CC2)cn1`, the figure is -3.63%; as for `COCC(=O)N(Cc1ccc2[nH]ccc2c1)C1CC1`, -25.2%. On to `Cc1nc(CN2CCC3(CCN(c4ncc(F)cn4)C3)C2=O)cs1` (centres undefined), for which the cytotoxicity at 70.5 h came out at 4.85%. As for `Cc1cccc(OC2CN(C(=O)C3CC(=O)N(C4CC4)C3)C2)c1` (centres undefined), the figure is 4.04%; as for `Cc1ccc(CNC(=O)c2oc3ccccc3c2CN(C)C)n1C`, -6.83%.

As for `c1cnn(CC2CCCCN2Cc2cn3ccsc3n2)c1` (centres undefined), the cytotoxicity at 70.5 h is -13.5%.

In the case of `COc1ccc(CC(=O)N2CCCC2Cn2cc(C)cn2)cc1OC` (centres undefined), the cytotoxicity at 70.5 h was -0.349%. Turning to `CN(Cc1cc2n(n1)CCNC2)Cc1noc(C2CCC2)n1`, the cytotoxicity at 70.5 h is -3.21%. The same measure for `O=C(NCc1cn2c(n1)CN(Cc1cccnc1)CC2)C1CCC1`: 7.24%; for `COc1cc(OC)cc(-c2noc(C(N)CCSC)n2)c1` (centres undefined): -2.69%.

For the compound `Cc1c(C(=O)NC2=NCCS2)cnn1-c1ccc(Cl)cc1`, the cytotoxicity at 70.5 h was -3.08%. The same measure for `CC(=O)Nc1nc(CS(=O)(=O)Cc2ccccc2)cs1`: 20.1%; for `O=C(Cc1ccc2c(c1)CCC2)NC1CCN(Cc2ccccc2)CC1`: 30.6%; for `COc1ccc(CN2C[C@@H]3OCCN(c4ncccn4)[C@@H]3C2)cc1`: -7.28%. The same measure for `Cc1noc(C)c1S(=O)(=O)N1C[C@@H](C(=O)O)[C@H](c2ccccn2)C1`: -10.9%; for `CN(C)C(=O)c1cccc(CCNS(C)(=O)=O)c1`: -2.26%. `O=c1c(-c2ccnc(NC3CCOCC3)n2)cnc2sc(Cl)cn12`: the cytotoxicity at 70.5 h stood at 1.36%. As for `O=C(CN1CCN(CC(O)C2CC2)CC1)NCc1ccccc1` (centres undefined), the figure is -8.44%; as for `CN(C)CCn1ccnc1C1CCCN(c2nccc3ccccc23)C1` (centres undefined), 1.12%; as for `CCC(=O)Nc1ccc(F)c(S(=O)(=O)NC(C)(C)C)c1`, 8.07%. Take `COCCN(Cc1cccs1)C(=O)C1CCCN(C(N)=O)C1` (centres undefined): the cytotoxicity at 70.5 h came to 14.1%. As for `CC(C)c1nnc2n1CCN(Cc1ncc(-c3ccccc3)o1)C2`, the figure is -10.5%; as for `OCc1ccc(CN2CCC(n3cc(-c4ccc(F)cc4)nn3)CC2)o1`, -8.09%; as for `CCN(CC1CCOCC1)C(=O)C1CC(=O)N(Cc2cccnc2)C1` (centres undefined), -5.23%. As for `COc1ccccc1CC1CCCN(CCN2CCOC2=O)C1` (centres undefined), the figure is -7.17%; as for `c1ccc(COC[C@@H]2CCC[C@@]23CNCCO3)nc1`, 14.4%. The same measure for `Cn1cc(C(=O)O)c(-c2ccc(F)cc2F)n1`: -4.16%; for `Cc1csc(CNC(=O)N2CCN(Cc3ccco3)CC2)n1`: -5.98%. Turning to `COc1cccc(C(C)N2CCN(S(=O)(=O)c3ccccc3)CC2)c1` (centres undefined), the cytotoxicity at 70.5 h was -2.4%. As for `CC(=O)c1ccc(C(=O)N(C)Cc2nc(-c3ccccn3)no2)s1`, the figure is 8.57%; as for `CSCCCN1C(=O)CC[C@H]2CN(Cc3ncc[nH]3)CC[C@H]21`, -5.45%. The same measure for `COCCCN1CCN(C(=O)C(c2cccc(F)c2)N(C)C)CC1` (centres undefined): -5.78%; for `Cc1cc(C)n(C2CN(CC(O)COc3ccc(F)cc3)C2)n1` (centres undefined): -16.7%. The same measure for `CC[C@@]1(O)CCN(c2ncc(Cl)cc2F)C[C@H]1O`: -13.4%; for `CC(=O)c1cn(CCC(=O)N[C@@H](CC(C)C)C(=O)O)c2ccccc12`: -7.76%. Take `O=S(=O)(NC[C@]12COC[C@H]1CN(CCc1ccccc1)C2)C1CC1`: the cytotoxicity at 70.5 h was -2.87%.

On to `C[C@H]1CN(C(=O)N(C)C)C[C@@]12CCN(c1ccsc1)C2=O`, for which the cytotoxicity at 70.5 h is -8.12%. As for `COCc1ccc(C(=O)N2CCN(CCS(C)(=O)=O)CC2)cc1`, the figure is -10.7%. As for `CN(C)c1cc2c(nn1)CCN(C(=O)C1COc3ccccc3C1)C2` (centres undefined), the figure is 3.17%; as for `Cn1c2c(ccc1=O)CCN(Cc1ccoc1)CC2`, 4.43%.

In the case of `Cc1cc(C)c(C(=O)N(C)CCN(C)C(=O)OC(C)(C)C)[nH]1`, the cytotoxicity at 70.5 h amounted to 6.57%. The same measure for `Cc1cc(C2CCC2)nc(N2CCN(Cc3nccn3C)CC2)n1`: -1.45%; for `CCNC(=O)c1ccnc(CC2COc3c(cccc3OC)C2)c1` (centres undefined): -38.4%; for `O=C(C1CCCS1)N1CCOc2cccc(F)c21` (centres undefined): -3.7%. In the case of `CC(C)=CCN1Cc2nnc(C3CCOCC3)n2C(Cc2c[nH]cn2)C1` (centres undefined), the cytotoxicity at 70.5 h was -5.43%. The same measure for `COc1ccccc1N1CCN(C(=O)c2ccnc(N(C)C)c2)CC1`: 36.2%; for `COCCN1CCC(CNC(=O)C2(c3cccc(Cl)c3)CC2)C1` (centres undefined): -0.451%. The same measure for `COCc1ccc(CNCc2c(C)nn(C)c2N(C)C)cc1`: 24.1%; for `Cc1cc(N)nc(SC2CCN(c3ccccc3F)C2=O)n1` (centres undefined): 19%; for `Cc1ccc(C(=O)N2CCC(c3nccn3Cc3ccncc3)CC2)s1`: -8.45%. As for `COCCSCC(=O)NCc1ccc(N(C)C)nc1`, the figure is -4.15%; as for `CN(C)C(c1ccccn1)[C@H]1CC[C@H](CNC(=O)C2CC2)CC1` (some centres undefined), 1.46%. With `CC1CC(=O)c2cc(C(=O)N3CCOCC3)c(=O)[nH]c2C1` (centres undefined), the cytotoxicity at 70.5 h is -0.268%. As for `O=C(c1ccnnc1)N1CCO[C@H]2[C@@H](OCc3cccnc3)CC[C@@H]21`, the figure is -6.56%. For the compound `COc1ccc(C(=O)N2CCOCC(CO)C2)cc1N1CCOCC1` (centres undefined), the cytotoxicity at 70.5 h was -3.09%. The same measure for `O=C(c1cccc2c1OCCO2)N1CCCCC1Cn1cccn1` (centres undefined): -6.1%; for `COCCOCC(=O)Nc1cc(C)ccc1F`: 4.73%. The same measure for `CC(C)C(C(=O)N1CCN(Cc2cscn2)CC1)n1cncn1` (centres undefined): -1.99%.

On to `O=C(O)c1csc(S(=O)(=O)N2CCN(Cc3c(F)cccc3Cl)CC2)c1`, for which the cytotoxicity at 70.5 h was -31.1%.

With `CCOCCN1CCN(CC(=O)N2CCCC2)CC1CC` (centres undefined), the cytotoxicity at 70.5 h was -4.43%. On to `CCN1CC(CN2CCOCC2)Oc2ncccc2C1=O` (centres undefined), for which the cytotoxicity at 70.5 h turned out to be 13.2%.

With `CC(CNC(=O)Nc1ccc(F)cc1Br)N1CCOCC1` (centres undefined), the cytotoxicity at 70.5 h was found to be 31.4%.

`Cn1cc(CN2CCCN(C(=O)c3ccccn3)CC2)cn1`: the cytotoxicity at 70.5 h is -1.29%. As for `Cn1nnc2c1CCN(CC1CC1)C2COCc1ccccc1` (centres undefined), the figure is -6.64%; as for `CCN(CCNC(=O)c1ccccc1OCCOC)C1CC1`, 54.8%.

For `O=C(c1ccc(Cl)cn1)N1CCC(COCc2ccccc2)C1` (centres undefined), the cytotoxicity at 70.5 h was 15.8%. The same measure for `Cc1ccnc(C2CCN(S(=O)(=O)c3cn(C)cn3)CC2)n1`: -9.62%; for `Cc1cccc(-c2c[nH]c(C3CCCN3C(=O)c3cc(C)n[nH]3)n2)c1` (centres undefined): -9.63%; for `O=c1c2cc3c(cc2nnn1Cc1ccccc1Cl)OCCO3`: 12.4%. As for `CCNC(=O)N1C[C@@H]2OCC(=O)N(CC3CC3)[C@@H]2C1`, the figure is -3.79%; as for `Fc1cccc(-c2nnn3c2COC(CNCc2ccsc2)C3)c1` (centres undefined), 0.277%. For the compound `CCCS(=O)(=O)NC(C)C(=O)NCc1ccc(N2CCCC2)nc1` (centres undefined), the cytotoxicity at 70.5 h was -7.44%.
